Reference: patent US11331298B2, “Powder solid dispersions comprising quercetin, process for their preparation and formulations thereof” (INDENA S.P.A., priority 2017, dated 2022)

Experiments:
[1] = Solubility studies in simulated gastro-intestinal fluids; assay type: physicochemical; details: excess analyte, magnetic stirring 2 hours, HPLC
Excerpt: Quercetin dihydrate, quercetin powder solid dispersion obtained in Example 1 and a mechanical (physical) mixture of the component of the said solid dispersion were subjected to comparative solubility experiments, in the presence of high excess of analyte, using the following simulated gastro-intestinal fluids: • fasted state simulated gastric fluid; • fasted state simulated intestinal fluid; • fed state simulated intestinal fluid.
Equivalent amounts of quercetin were used during the experiments. Quercetin dihydrate, quercetin powder solid dispersion of Example 1 and the mechanical (physical) mixture were kept under magnetic stirring for 2 hours. The supernatant was filtered and the quercetin concentration was calculated by HPLC analysis.

[2] = Single dose randomized, crossover pharmacokinetic study in healthy volunteers; assay type: in vivo, human; details: fasting, single oral dose, 500 mg film-coated tablets, mean
Procedure: A single dose randomized, crossover pharmacokinetic study in healthy volunteers under fasting conditions was performed using film-coated tablets containing 500 mg of (unformulated) quercetin dihydrate, 500 mg of quercetin (40%) powder solid dispersion (corresponding to 200 mg of quercetin dihydrate) and 250 mg of quercetin (40%) powder solid dispersion (corresponding to 100 mg of quercetin dihydrate).

## O=c1c(O)c(-c2ccc(O)c(O)c2)oc2cc(O)cc(O)c12 [Quercetin dihydrate, 2-(3,4-Dihydroxyphenyl)-3,5,7-trihydroxy-4H-chromen-4-one]
[1]; Fasted state simulated gastric fluid (pH 1.6)
  Quercetin concentration (solubility): <LOD
[1]; Fasted state simulated intestinal fluid (pH 6.5)
  Quercetin concentration (solubility): 0.0075 mg/mL
[1]; Fed state simulated intestinal fluid (pH 5.0)
  Quercetin concentration (solubility): 0.0191 mg/mL
[2]
  Cmax: 0.01093 µg/mL
[2]; human, in vivo
  AUC(0-inf): 0.0901 µg·h/mL
